How the values were obtained:
HMG-CoA reductase = target: T1, HMG-CoA reductase (Rattus norvegicus, UniProt P51639); test: HMG-CoA reductase activity in liver microsomes of fed rats; type: in vivo; conditions: liver microsomes of rats fed 1% cholesterol plus 0.02% naringenin or 0.036% NG5006, six weeks
T1 construct: microsomes were separated from liver tissues to be used as an enzyme source; from tissue; host or cells: liver microsomes of fed rats
T1 sequence (P51639 1-887): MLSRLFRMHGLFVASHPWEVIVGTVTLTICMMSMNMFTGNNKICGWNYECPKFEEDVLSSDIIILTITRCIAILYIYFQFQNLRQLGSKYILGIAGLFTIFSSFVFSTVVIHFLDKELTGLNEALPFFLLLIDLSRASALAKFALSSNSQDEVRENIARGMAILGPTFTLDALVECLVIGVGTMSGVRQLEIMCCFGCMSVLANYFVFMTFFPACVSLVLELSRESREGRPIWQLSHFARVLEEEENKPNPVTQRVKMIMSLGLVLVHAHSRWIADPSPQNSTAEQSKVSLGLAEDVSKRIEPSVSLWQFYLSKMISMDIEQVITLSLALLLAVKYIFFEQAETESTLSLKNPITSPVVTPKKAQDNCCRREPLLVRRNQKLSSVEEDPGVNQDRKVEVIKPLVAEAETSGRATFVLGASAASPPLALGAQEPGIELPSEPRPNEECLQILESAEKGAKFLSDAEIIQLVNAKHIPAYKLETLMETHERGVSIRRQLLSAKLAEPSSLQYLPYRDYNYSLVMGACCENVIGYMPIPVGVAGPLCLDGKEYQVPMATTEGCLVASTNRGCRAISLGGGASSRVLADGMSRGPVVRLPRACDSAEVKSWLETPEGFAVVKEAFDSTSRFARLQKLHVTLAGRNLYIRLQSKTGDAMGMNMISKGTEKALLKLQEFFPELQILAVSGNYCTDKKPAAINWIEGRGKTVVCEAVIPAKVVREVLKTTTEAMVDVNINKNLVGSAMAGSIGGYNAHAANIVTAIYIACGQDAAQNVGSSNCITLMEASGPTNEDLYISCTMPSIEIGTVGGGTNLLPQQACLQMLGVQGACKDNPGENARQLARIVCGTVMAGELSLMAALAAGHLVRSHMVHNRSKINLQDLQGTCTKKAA
Description: (§1) To determine the effect of feeding NG5006 to rats on the activities of ACAT and HMG-CoA reductase, microsomes were separated from liver tissues to be used as an enzyme source.
(§2) 1 g each of the livers taken from each group of rats of Example 12 was homogenized in 5 ml of homogenization medium(0. 1 M KH2PO4, pH 7.4, 0.1 mM EDTA and 10 mM β-mercaptoethanol). The homogenate was centrifuged at 3,000×g for 10 min. at 4° C. and the supernatant thus obtained was centrifuged at 15,000×g for 15 min. at 4° C. to obtain a supernatant. The supernatant was put into an ultracentrifuge tube(Beckman) and centrifuged at 100,000×g for 1 hour at 4° C. to obtain microsomal pellets, which were then suspended in 3 ml of the homogenization medium and centrifuged at 100,000×g for 1 hour at 4° C. The pellets thus obtained were suspended in 1 ml of the homogenization medium. The protein concentration of the resulting suspension was determined by Lowry's method and then adjusted to 4 to 8 mg/ml. The resulting suspension was stored in a deep freezer(Biofreezer, Forma Scientific Inc.).
The activity of HMG-CoA reductase was determined by employing [^14C]HMG-CoA, in accordance with the method of Shapiro et al.(Biochemica et Biophysica Acta, 370, 369-377(1974)) as follows.
The enzyme in the supernatant containing the microsome obtained in (Step 1) was activated at 37° C. for 30 min. Added to a reaction tube were 20 μl of HMG-CoA reductase assay buffer(0.25M KH2PO4(pH 7.0), 8.75 mM EDTA, 25 mM DTT, 0.45 M KCl and 0.25 mg/ml BSA), 5 μl of 50 mM NADPH, 5 μl of [^14C]HMG-CoA(0.05μ Ci/tube, final conc. 120μM), and 10 μl of activated microsomal enzyme(0.03-0.04 mg), and the mixture was incubated at 37° C. for 30 min. […] A region having a Rf value ranging from 0.65 to 0.75 was removed by scraping with a disposable cover slips and assayed for radioactivity with 1450 Microbeta liquid scintillation counter(Wallac Co., Finland). Enzyme activities were calculated as picomoles mevalonic acid synthesized per min. per mg protein(pmoles/min/mg protein).

ACAT [1] = test: ACAT activity in liver microsomes of fed rats; type: in vivo, rat; conditions: liver microsomes of rats fed 1% cholesterol plus 0.02% naringenin or 0.036% NG5006, six weeks
Description: as §1, §2
6.67 μl of 1 mg/ml cholesterol solution in acetone was mixed with 6 μl of 10% Triton WR-1339(Sigma Co.) in acetone and then, acetone was removed from the mixture by evaporation under a nitrogen flow. Distilled water was added to the resulting mixture to adjust the concentration of cholesterol to […].
Added to 10 μl of the resulting aqueous cholesterol solution were 10 μl of 1 M KH2PO4(pH 7.4), 5 μl of 0.6 mM bovine serum albumin(BSA), 10 μl of microsome solution obtained in (Step 1) and 55 μl of distilled water(total 90 μl). The mixture was pre-incubated in a water bath at 37° C. for 30 min. […]
200 μl of the resulting supernatant was put in a scintillation bottle and 4 ml of scintillation fluid(Lumac Co.) was added thereto. The mixture was assayed for radioactivity with 1450 Microbeta liquid scintillation counter(Wallac Co., Finland). ACAT activity was calculated as picomoles of cholesteryl oleate synthesized per min. per mg protein(pmoles/min/mg protein).

Sprague-Dawley rats = test: Plasma total cholesterol, HDL-cholesterol and triglyceride levels in rats fed high-cholesterol diet; type: in vivo, rat
Text: (Step 1) Administration of NG5006 to rats
30 four-week-old white Sprague-Dawley rats (Korea Institute of Science and Technology, Korea), each weighing about 90 to 120 g, were evenly divided into three dietary groups by a randomized block design. The rats of the three groups were fed with three different high-cholesterol diets, i.e., AIN-76 laboratory animal diet(ICN Biochemicals, Cleveland, Ohio, U.S.A.) containing 1% cholesterol(Control group), 1% cholesterol plus 0.02% naringenin and 1% cholesterol plus 0.036% NG5006, respectively.
The rats were allowed to feed freely on the specified diet together with water for six weeks, the ingestion amount was recorded daily and the rats were weighed every 7 days, and then the record was analyzed. […] (Step 2) Determination of total cholesterol, HDL-cholesterol and triglyceride contents in blood
The effects of administering naringenin or NG5006 to rats on the plasma cholesterol and triglyceride contents were determined as follows.
Blood samples were taken from the rats of the three dietary groups and total cholesterol level was determined by using Sigma Diagnostic Kit Cat. No. C0534(Sigma Chemical Co., U.S.A.). HDL fractions were separated therefrom by using HDL-cholesterol reagent(Sigma Chemical Co., Cat. No. 352-1) and HDL-cholesterol level was determined by using Sigma Diagnostic Kit Cat. No. C9908(Sigma Chemical Co., U.S.A.). Triglyceride level was determined by using Sigma Diagnostic Kit Cat. No. 336-10(Sigma Chemical Co., U.S.A.).

ACAT [2] = test: ACAT activity in fed rabbits; type: in vivo, rabbit; conditions: rabbits fed 1% cholesterol plus 1 mg/kg Lovastatin or 0.1% NG5006, 8 weeks
Description: (§3) 22 three-month-old New Zealand White rabbits(Yeonam Horticulture and Animal Husbandry College, Korea) each weighing about 2.0 to 2.3 kg were bred under a condition of temperature 20±2° C., relative humidity 55±10%, and photoperiod 12L/12D. The rabbits were divided two groups of 6 rabbits and a group of 10 rabbits, and the rats of three groups were fed with three different diets, i.e., RC4 diet(Oriental Yeast Co., Japan) containing 1% cholesterol(Control group); 1% cholesterol plus 1 mg/kg Lovastatin® (Merck, U.S.A.)(Comparative group); and 1% cholesterol plus 0.1% NG5006, respectively. RC4 diet comprises 7.6% moisture, 22.8% crude protein, 2.8% crude fat, 8.8% crude ash, 14.4% crude cellulose and 43.6% soluble nitrogen-free substances. The rabbits were bred for 8 weeks while being allowed free access to the diets and water.
The effect of feeding NG5006 to rabbits on the activities of ACAT was determined using the rabbits bred in Step 1 of Example 14 in accordance with procedure disclosed in step 1 of Example 13.

[3] = test system: New Zealand White rabbits; test: Abnormal fat-containing liver cells (fatty liver) in cholesterol-fed rabbits; type: in vivo, rabbit
Description: as §3
In order to evaluate the effects of feeding a high cholesterol diet with NG5006 on liver tissues, the liver specimens taken from the sacrificed rabbit in Step 2 of Example 14 were treated in accordance with the procedure disclosed in Fogt F. and Nanji A., Toxicology and Applied Pharmacology, 136, 87-93, 1996; and Keegan A., et al., Journal of Hepatology, 23, 591-600, 1995, and observed under a microscope to be classified into four grades, i.e., 1+(0-25%), 2+(26-50%), 3+(51-75), 4+(76-100%) based on the proportion of abnormal fat-containing cells around the central vein in the liver acinus. The results were tested by student t-test by using Microsoft excel(version 7.0) program.

[4] = test system: New Zealand White rabbits; test: Fatty streak in the main artery of cholesterol-fed rabbits; type: in vivo, rabbit
Description: as §3
The rabbits bred in Step 1 were sacrificed and their chest were incised. The main artery was cut out therefrom in a length of about 5 cm downward from the site 1 cm above the aortic valve and the fat surrounding the main artery was removed. The main artery was incised in the middle along the longitudinal axis and fixed in 10% neutral buffered formalin for 24 hours, and then, pinned to a dish. The moist artery was photographed and, then, staining of fatty streak was carried out in accordance with the method of Esper, E., et al. (J. Lab. Clin. Med., 121, 103-110(1993)) as follows.
A part of the incised main artery was washed three times by 2 min. with anhydrous propylene glycol and stained for 30 min. with a saturated solution of Oil Red O(ORO, Sigma Co.) dissolved in propylene glycol. Thereafter, the artery was washed twice by 3 min. with 85% propylene glycol to remove remaining staining solution and, then washed with physical saline. The artery was photographed and the photograph was traced. The area of stained legion(fatty streak legion) was determined with an image analyzer(LEICA, Q-600, Germany) and its proportion(%) to the total arterial area was calculated. The result is shown in Table V. The results were tested by student t-test by using Microsoft excel(version 7.0) program.

[5] = plasma, rats on 1% cholesterol diet plus 0.02% naringenin or 0.036% NG5006, six weeks
[6] = rats, 1% cholesterol diet, six weeks
[7] = 1% cholesterol plus 1 mg/kg Lovastatin or 0.1% NG5006

SMILES | HMG-CoA reductase activity (HMG-CoA reductase) [pmole/min/mg protein] | ACAT activity (ACAT [1]) [pmole/min/mg protein] | HDL-C (HDL-cholesterol) (Sprague-Dawley rats; [5]) [mg/dL] | HDL-C/Total-C (Sprague-Dawley rats; [5]) [%] | TG (triglyceride) (Sprague-Dawley rats; [5]) [mg/dL] | Total-C (total cholesterol) (Sprague-Dawley rats; [5]) [mg/dL] | AI: Atherosclerosis Index (AI = (Total-C − HDL-C)/HDL-C) (Sprague-Dawley rats; rats on 1% cholesterol diet plus 0.02% naringenin or 0.036% NG5006, six weeks) | total plasma cholesterol level lower than in the Control group (Sprague-Dawley rats; [6]) [%] | triglyceride level lower than in the control group (Sprague-Dawley rats; [6]) [%] | ACAT activity (ACAT [2]) [pmole/min/mg protein] | % Inhibition on ACAT Activity (ACAT [2]; versus control group) [%] | microscopic features of the livers (FIGS. 2B, 2C) [3, 7] | Proportion of abnormal fat-containing liver cells (grade) ([3]; grades 1+(0-25%), 2+(26-50%), 3+(51-75), 4+(76-100%), 1% cholesterol plus 1 mg/kg Lovastatin or 0.1% NG5006, 8 weeks) | layer on the arterial endothelium (FIGS. 1B, 1C) [4, 7] | formation of fatty streak compared to the control group, in words ([4]; 1% cholesterol plus 1 mg/kg Lovastatin or 0.1% NG5006, 8 weeks) | Fatty Streak lesion (proportion of total arterial area) ([4]; 1% cholesterol plus 1 mg/kg Lovastatin or 0.1% NG5006, 8 weeks, Oil Red O staining) [%]
O=C1C[C@@H](c2ccc(O)cc2)Oc2cc(O)cc(O)c21 [Naringenin, naringenin, reference compound] | 87.7 ± 5.9 | 153.3 ± 6.9 | 35.8 ± 1.5 | 18.8 ± 0.9 | 143.7 ± 9.4 | 190.6 ± 7.6 | 4.3 ± 0.3 | 16 | 6 |  |  |  |  |  |  | 
CC[C@H](C)C(=O)O[C@H]1C[C@@H](C)C=C2C=C[C@H](C)[C@H](CC[C@@H]3C[C@@H](O)CC(=O)O3)[C@H]21 [Lovastatin ®, Lovastatin, reference compound] |  |  |  |  |  |  |  |  |  | 246.1 ± 52.5 | 4.2 | many cells containing excessive fat were observed around the central vein | 3.3 ± 1.1 | no or very thin layers of macrophage-lipid complex | significantly inhibit the formation of fatty streak | 18.0 ± 9.5
